The values below come from PubChem BioAssay AID977628 (Broad Institute, 2014).

Inconclusive results are not listed.

This assay deals with E. coli mixed WT/h24 culture total growth, OD600, 24 h. The experiment in a line: growth of wild-type and h24-humanized E. coli strains – h24 mutant RFP vs wild-type GFP, cherry-pick, dose response (AID 977628).
Usually AC50 stands for the concentration at which the activity in the assay is half-maximal. Read a high AC50 as weaker potency. `CN1CCN(CC(=O)c2cc(C(C)(C)C)c(O)c(C(C)(C)C)c2)CC1` came in with an AC50 above 100 µM.

In turn, `CCOC(=O)CN1C(=O)C(CC)Oc2ccc(Cl)cc21` (stereo not drawn) displayed an AC50 above 100 µM.

`Cc1ccc(C2NC(c3ccc(C)cc3)C(C)C(=O)C2C)cc1` (stereo not drawn) showed an AC50 above 100 µM.

The compound `Cc1nn2c(NCc3ccccn3)cc(C(C)C)nc2c1-c1ccccc1` registered a concentration at half-maximal activity (AC50) above 100 µM.

Compound `CC(C)n1nnnc1C1c2ccccc2C(=O)N1CCOc1ccccc1` (stereo not drawn) came in with an AC50 above 100 µM.

Take `COc1cc(CCN(C(=O)c2cc3ccccc3[nH]2)C(c2ccccn2)c2nc3ccccc3[nH]2)cc(OC)c1` (stereo not drawn): the AC50 is above 100 µM.

As to `CC(C)(C)CC(=O)Nc1ccccc1N1CCN(c2ccccc2)CC1`, the AC50 was above 100 µM.

For `Cc1ccc(S(=O)(=O)N2CCCCC2C(=O)N2CCN(c3ccccc3F)CC2)cc1` (stereo not drawn), the AC50 is above 100 µM.

In turn, `O=C(Nc1ccccc1N1CCOCC1)C1CCCCN1S(=O)(=O)c1ccccc1` (stereo not drawn) had an AC50 above 100 µM.

`COc1ccc(-c2csc(NC(=O)c3ccoc3C)n2)cc1` had an AC50 above 100 µM.

On to `COc1ccc(C(=O)NCCC2=CCCCC2)cc1[N+](=O)[O-]`, for which the concentration at half-maximal activity (AC50) was above 100 µM.

`CN1OC[C@@H]2CN(C(=O)c3ccco3)[C@H](c3ccc(-c4ccc(C#N)cc4)cc3)C[C@@H]21` gave an AC50 above 100 µM.

Take `COc1cccc(OC)c1CNC(=O)CCSCc1ccccc1F`: the AC50 is above 100 µM.

The compound `CCCCc1cc2c(cc1NC(=O)CN1CCCCC1)OCCO2` came in with an AC50 above 100 µM.

Regarding `Cc1ccsc1C(=O)C1CCCN(Cc2cc(F)ccc2-n2cccn2)C1` (stereo not drawn), the AC50 was above 100 µM.

Consider `O=C1OCCC1Sc1nc2ccccc2c(=O)n1Cc1ccccc1` (stereo not drawn), for which the AC50 is above 100 µM.

`CC(NC(=O)C12CC3CC(C)(CC(C)(C3)C1)C2)c1ccncc1` (stereo not drawn) had a concentration at half-maximal activity (AC50) above 100 µM.

`Cc1cc(C(C)(C)C)oc1C(=O)N(CC(=O)NC1CCCC1)c1c(C)cccc1C` yielded an AC50 above 100 µM.

Consider `Cc1ccc(S(=O)(=O)NC(C)C(=O)NCc2ccc(Cl)cc2)cc1` (stereo not drawn), for which the AC50 was above 100 µM.

In turn, `CN(CC(=O)Nc1ccc(F)cc1)C(=O)COc1ccc([N+](=O)[O-])cc1Cl` showed an AC50 above 100 µM.

Compound `O=S1(=O)N[C@H](Cc2ccccc2)COc2cc(N3CCSCC3)ccc21` came in with an AC50 above 100 µM.

On to `O=C(CSCc1c(Cl)cccc1Cl)NCc1ccccn1`, for which the AC50 was above 100 µM.

With `COc1cccc(C(=O)c2c[nH]c(C(=O)NCc3cccnc3)c2)c1`, the AC50 was above 100 µM.

As for `O=C1OC[C@@H]2CCCN2C(=O)[C@@H](CC(=O)N(CCO)Cc2ccccc2)C/C=C\C[C@H]1Cc1ccc(F)cc1`, the AC50 is above 100 µM.

The compound `Cc1ccn2cc(-c3cccc(NC(=O)c4cccs4)c3)nc2c1` gave an AC50 above 100 µM.

As to `Cn1cc(CN(CCO)Cc2cccs2)c(-c2cccc(Cl)c2)n1`, the AC50 is above 100 µM.

`O=C(C[n+]1ccn(-c2ccccc2)c1)c1ccc([N+](=O)[O-])cc1`: the AC50 is above 100 µM.

Take `COc1ccc(C(=O)C[n+]2ccc3c(c2)nc(-c2cc(OC)c(OC)cc2OC)n3C)cc1`: the AC50 is above 100 µM.

Take `CC1CCC2(CC1)SCC(=O)N2c1ccc(F)cc1` (stereo not drawn): the concentration at half-maximal activity (AC50) is above 100 µM.

Compound `CC(=O)NCCOc1nc(N2CCCCC2)nc(N2CCCCC2)n1` had an AC50 above 100 µM.

Consider `C[C@@H]1CN([C@@H](C)CO)C(=O)c2cc(NC(=O)C3CC3)ccc2O[C@H]1CN(C)C(=O)Nc1ccc(C(F)(F)F)cc1`, for which the AC50 is above 100 µM.

`Cc1ccc(OCCCC(=O)NC(C)c2ccccc2)c(C)c1` (stereo not drawn) gave an AC50 above 100 µM.

In turn, `CN(C)S(=O)(=O)c1ccc(Cl)c(C(=O)OCC(=O)NC(=O)c2cccn2C)c1` came in with an AC50 above 100 µM.

In turn, `O=C(Nc1ccc(F)c(Cl)c1)C1CC2CCC1C2` (stereo not drawn) had an AC50 above 100 µM.

In turn, `Cc1ccc(Cc2c(-c3cccc(Br)c3)nc3ccc(C)cn23)cc1` came in with an AC50 above 100 µM.

Consider `CC1CCCC(NC(=O)COC(=O)Cc2c[nH]c3ccccc23)C1C` (stereo not drawn), for which the AC50 is above 100 µM.

Compound `C=CCn1c(SCC(=O)Nc2ccc3c(c2)OCCO3)nnc1-c1ccco1` returned an AC50 above 100 µM.

The compound `COC(=O)c1cc2c(c3c4cc(F)ccc4n(S(=O)(=O)c4cccc(C)c4)c13)C(=O)N(Cc1ccco1)C2` gave an AC50 above 100 µM.
